Target: human GPR17 short isoform (Homo sapiens, UniProt Q13304)
Experiment: GPR17 cAMP assay (hGPR17 cAMP, antagonist mode, TR-FRET)
Assay type: cell-based
Conditions: CHO-K1 cells stably expressing human GPR17 short isoform; EC80 of agonist MDL29,951; forskolin 15 μM; IBMX 0.5 mM
Method: GPR17 cAMP Assay Protocol:
CHO-K1 cells stably expressing vector containing untagged human GPR17 short isoform (Roche) were cultured at 37° C./5% CO2 in DMEM (Dulbecco's Modified Eagle Medium):F-12 (1:1) supplemented with 10% foetal bovine serum and 400 μg/ml Geneticin.
Changes in intracellular cyclic adenosine monophosphate (cAMP) levels were quantified using the Nano-TRF Detection Assay kit (Roche Diagnostics, Cat. No. 05214386001). This assay allows for direct cAMP quantification in a homogeneous solution. cAMP is detected based on time-resolved fluorescence energy transfer (TR-FRET) and competitive binding of ruthenylated cAMP and endogenous cAMP to an anti-cAMP monoclonal antibody labeled with AlexaFluor-700. The Ruthenium complex serves as the FRET donor and transfers energy to AlexaFluor-700. The FRET signal is inversely proportional to the cAMP concentration.
CHO-GPR17S cells were detached with Accutase and resuspended in assay buffer consisting of Hank's Balanced Salt Solution (HBSS), 10 mM HEPES (4-(2-hydroxyethyl) piperazine-1-ethanesulfonic acid solution) and 0.1% bovine serum albumin (pH 7.4). The cells were seeded in black 384-well plates (Corning) at a density of 10,000 cells/20 μl assay buffer until the addition of compounds.
Test antagonist compounds were serially diluted in dimethyl sulfoxide (DMSO) and spotted in 384-well plates. The compounds were then diluted in HBSS buffer supplemented with an EC80 concentration of MDL29,951 (3-(2-Carboxy-4,6-dichloroindol-3-yl)propionic acid) (GPR17 agonist) plus 3-Isobutyl-1-methylxanthine (IBMX) (0.5 mM final concentration) and added to the cells at room temperature. Forskolin (15 μM final concentration) was added 5 minutes after the test compounds and the cells were incubated at room temperature for 30 minutes. The assay was stopped by adding cAMP detection mix (containing detergents for cell lysis) for 90 minutes at room temperature.
Cellular cAMP was measured using a Paradigm reader (Molecular Devices). The raw data was used to calculate the FRET signal based on the assay's P-factor as per cAMP kit instructions. The data was normalized to the maximal activity of a reference antagonist and dose response curves were fitted to the percent activity of the test compounds using a sigmoidal dose response model (Genedata Screener).
Results in the hGPR17 cAMP assay are provided for compounds of formula I in Table 1

Chain of human GPR17 short isoform (Q13304 29-367): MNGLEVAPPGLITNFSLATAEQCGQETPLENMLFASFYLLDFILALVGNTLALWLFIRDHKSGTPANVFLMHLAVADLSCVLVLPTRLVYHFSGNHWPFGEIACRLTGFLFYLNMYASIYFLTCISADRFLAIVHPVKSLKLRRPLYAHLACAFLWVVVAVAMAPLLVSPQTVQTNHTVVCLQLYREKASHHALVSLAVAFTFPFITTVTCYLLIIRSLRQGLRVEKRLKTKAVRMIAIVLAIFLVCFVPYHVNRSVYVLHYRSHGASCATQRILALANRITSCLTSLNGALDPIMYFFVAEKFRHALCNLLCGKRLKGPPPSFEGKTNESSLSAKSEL

| IC50 | SMILES |
| --- | --- |
| 19 nM | CCCc1snc(NS(=O)(=O)c2c[nH]c3cc(Cl)ccc23)c1Cl [Example 1, 6-chloro-N-(4-chloro-5-propyl-isothiazol-3-yl)-1H-indole-3-sulfonamide] |
| 51 nM | O=S(=O)(Nc1nsc(C2CC2)c1Cl)c1c[nH]c2cc(Cl)ccc12 [Example 2, 6-chloro-N-(4-chloro-5-cyclopropyl-isothiazol-3-yl)-1H-indole-3-sulfonamide] |
| 131 nM | O=S(=O)(Nc1nsc(C2CC2)c1Cl)c1c[nH]c2nc(Cl)ccc12 [Example 3, 6-chloro-N-(4-chloro-5-cyclopropyl-isothiazol-3-yl)-1H-pyrrolo[2,3-b]pyridine-3-sulfonamide] |
| 103 nM | O=S(=O)(Nc1nsc(C2CC2)c1Cl)c1c[nH]c2nc(Br)ccc12 [Example 4, 6-bromo-N-(4-chloro-5-cyclopropyl-isothiazol-3-yl)-1H-pyrrolo[2,3-b]pyridine-3-sulfonamide] |
| 106 nM | Cc1snc(NS(=O)(=O)c2c[nH]c3cc(Cl)ccc23)c1Cl [Example 5, 6-chloro-N-(4-chloro-5-methyl-isothiazol-3-yl)-1H-indole-3-sulfonamide] |
| 216 nM | Cc1snc(NS(=O)(=O)c2c[nH]c3cc(Cl)ccc23)c1C [Example 6, 6-chloro-N-(4,5-dimethylisothiazol-3-yl)-1H-indole-3-sulfonamide] |
| 452 nM | CCc1onc(NS(=O)(=O)c2c[nH]c3cc(Cl)ccc23)c1C [Example 7, 6-chloro-N-(5-ethyl-4-methyl-isoxazol-3-yl)-1H-indole-3-sulfonamide] |
| 105 nM | CCc1snc(NS(=O)(=O)c2c[nH]c3cc(Cl)ccc23)c1Cl [Example 8, 6-chloro-N-(4-chloro-5-ethyl-isothiazol-3-yl)-1H-indole-3-sulfonamide] |
| 659 nM | CCc1c(NS(=O)(=O)c2c[nH]c3cc(Cl)ccc23)nsc1C [Example 9, 6-chloro-N-(4-ethyl-5-methyl-isothiazol-3-yl)-1H-indole-3-sulfonamide] |
| 113 nM | COc1snc(NS(=O)(=O)c2c[nH]c3cc(Cl)ccc23)c1Cl [Example 10, 6-chloro-N-(4-chloro-5-methoxy-isothiazol-3-yl)-1H-indole-3-sulfonamide] |
| 54 nM | CCOc1snc(NS(=O)(=O)c2c[nH]c3cc(Cl)ccc23)c1Cl [Example 11, 6-chloro-N-(4-chloro-5-ethoxy-isothiazol-3-yl)-1H-indole-3-sulfonamide] |
| 74 nM | N#CCCc1snc(NS(=O)(=O)c2c[nH]c3cc(Cl)ccc23)c1Cl [Example 12, 6-chloro-N-[4-chloro-5-(2-cyanoethyl)isothiazol-3-yl]-1H-indole-3-sulfonamide] |
| 629 nM | Cc1cc(NS(=O)(=O)c2c[nH]c3cc(Cl)ccc23)ns1 [Example 13, 6-chloro-N-(5-methylisothiazol-3-yl)-1H-indole-3-sulfonamide] |
| 1110 nM | Cc1snc(NS(=O)(=O)c2c[nH]c3cc(Cl)ccc23)c1C1CC1 [Example 14, 6-chloro-N-(4-cyclopropyl-5-methyl-isothiazol-3-yl)-1H-indole-3-sulfonamide] |
| 499 nM | Cc1snc(NS(=O)(=O)c2c[nH]c3cc(Cl)ccc23)c1C#N [Example 15, 6-chloro-N-(4-cyano-5-methyl-isothiazol-3-yl)-1H-indole-3-sulfonamide] |
| 857 nM | COc1c(NS(=O)(=O)c2c[nH]c3cc(Cl)ccc23)nsc1C [Example 16, 6-chloro-N-(4-methoxy-5-methyl-isothiazol-3-yl)-1H-indole-3-sulfonamide] |
| 78 nM | CCCc1snc(NS(=O)(=O)c2c[nH]c3cc(Cl)ccc23)c1OC [Example 17, 6-chloro-N-(4-methoxy-5-propyl-isothiazol-3-yl)-1H-indole-3-sulfonamide] |
| 815 nM | CCCc1onc(NS(=O)(=O)c2c[nH]c3cc(Cl)ccc23)c1C [Example 18, 6-chloro-N-(4-methyl-5-propyl-isoxazol-3-yl)-1H-indole-3-sulfonamide] |
| 550 nM | Cc1onc(NS(=O)(=O)c2c[nH]c3cc(Cl)ccc23)c1C [Example 19, 6-chloro-N-(4,5-dimethylisoxazol-3-yl)-1H-indole-3-sulfonamide] |
| 404 nM | Cc1onc(NS(=O)(=O)c2c[nH]c3cc(Cl)ccc23)c1Cl [Example 20, 6-chloro-N-(4-chloro-5-methyl-isoxazol-3-yl)-1H-indole-3-sulfonamide] |
| 315 nM | Cc1onc(NS(=O)(=O)c2c[nH]c3cc(Cl)ccc23)c1Br [Example 21, N-(4-bromo-5-methyl-isoxazol-3-yl)-6-chloro-1H-indole-3-sulfonamide] |

— patent US20260028335A1, “NOVEL ISOTHIAZOL-3-YL AND ISOXAZOL-3-YL SULFONAMIDE COMPOUNDS” (Hoffmann-La Roche Inc., priority 2022, published 2026)
